Converted amounts (≈) assume the structure as drawn. “And” between values parts separate entries of the source, which are not always exact repeats. Equal values may be shown once. Read-outs that look alike come from different tables or passages of the source.
Experiments:
P. falciparum DXR [1] = target: T1, P. falciparum DXR (Plasmodium falciparum, UniProt Q8IKG4); experiment: Inhibition of P. falciparum DXR enzyme; type: biochemical; settings: for Pf DXR (% Residue): percent remaining enzyme activity at 100 μM compound
T1 sequence (Q8IKG4 73-488): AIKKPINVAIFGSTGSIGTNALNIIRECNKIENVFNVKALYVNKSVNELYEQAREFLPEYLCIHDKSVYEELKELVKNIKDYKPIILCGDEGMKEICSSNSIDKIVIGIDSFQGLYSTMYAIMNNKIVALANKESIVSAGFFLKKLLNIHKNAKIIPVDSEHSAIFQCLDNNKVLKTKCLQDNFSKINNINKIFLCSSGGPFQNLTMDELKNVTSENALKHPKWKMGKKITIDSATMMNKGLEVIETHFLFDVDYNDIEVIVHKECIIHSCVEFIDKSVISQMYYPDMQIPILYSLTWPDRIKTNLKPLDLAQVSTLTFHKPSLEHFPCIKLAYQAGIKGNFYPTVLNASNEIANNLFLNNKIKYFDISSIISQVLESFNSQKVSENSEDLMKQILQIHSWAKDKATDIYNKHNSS

Mtb DXR = Mtb DXR (Mycobacterium tuberculosis, UniProt P9WNS1); experiment: Inhibition of Mtb DXR enzyme; type: biochemical, M. tuberculosis; settings: percent remaining enzyme activity at 100 μM compound
Chain of Mtb DXR (P9WNS1 whole entry): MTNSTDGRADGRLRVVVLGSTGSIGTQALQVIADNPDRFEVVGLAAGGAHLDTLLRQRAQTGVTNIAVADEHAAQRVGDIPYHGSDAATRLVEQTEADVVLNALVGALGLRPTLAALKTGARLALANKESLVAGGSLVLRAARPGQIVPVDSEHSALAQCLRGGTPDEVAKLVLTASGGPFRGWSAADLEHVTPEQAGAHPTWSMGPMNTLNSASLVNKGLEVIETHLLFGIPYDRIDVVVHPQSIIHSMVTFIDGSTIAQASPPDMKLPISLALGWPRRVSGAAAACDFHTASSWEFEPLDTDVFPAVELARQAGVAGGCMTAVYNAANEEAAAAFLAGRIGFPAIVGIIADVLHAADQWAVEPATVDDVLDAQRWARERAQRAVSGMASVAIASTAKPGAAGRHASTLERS
Protocol: Phosphonic acid salts and prodrugs were evaluated as inhibitors of DXR from Mtb and P. falciparum and the results are shown in Table 6. Initially, the percent remaining enzyme activity was studied using a treatment of each compound at a single concentration of 100 μM. […] In general, the compounds display greater inhibition of DXR from P. falciparum compared with activity against the Mtb homolog.

P. falciparum [2] = experiment: Growth inhibition against P. falciparum; type: cell-based; settings: Plasmodium falciparum
Mtb = Mtb growth inhibition (MIC99) in 7H9 and GAST-Fe media; type: cell-based, M. tuberculosis; settings: Mycobacterium tuberculosis
Protocol: Selected analogs were tested for the growth inhibition against P. falciparum and Mtb in both rich media (7H9) and minimal media (GAST-Fe) following reported procedures.

[3] = test system: P. falciparum had1 mutant strain; type: cell-based; settings: in words
P. falciparum [4] = settings: earlier work / reference drug; read-out: P. falciparum growth IC50; cited from earlier work
HepG2 cells = experiment: HepG2 cell inhibition (cytotoxicity) assay; type: cell-based; settings: Homo sapiens, HepG2; Table 6, cytotoxicity; read-out: HepG2 IC50
Protocol: For cytotoxicity assays, HepG2 cells (ATCC HB-8065) were grown in DMEM supplemented with 4 mM L-glutamine (Gibco #11966-025) with either 4.5 g/L D-glucose or 1.8 g/L galactose as carbon source. Cells were trypsinized, resuspended in the respective medium (DMEM/glutamine/glucose or DMEM/glutamine/galactose) to 4×10^5 cells/mL and 50 μL/well transferred to flat-bottom white opaque tissue culture plates (Falcon #353296) containing 50 μL/well of the respective medium with test compound. Compound concentrations were two-fold dilutions ranging from 50 μM to 0.049 μM as well as the drug-free DMSO-only control. All concentrations were tested in duplicate for each carbon source. After 24 h incubation at 5% CO2, 37° C., 10 μL/well of Celltiter-Glo reagent (Promega #G9241) was added and luminescence recorded after 20 min incubation in the dark.

P. falciparum DXR [5] = target: T1, P. falciparum DXR; settings: background; read-out: P. falciparum DXR IC50; cited from earlier work
[6] = Table 6, N-acyl analogs, read-out: Pf Dxr IC50
[7] = Table 6, growth inhibition, read-out: P.f. IC50
[8] = rich media (7H9), read-out: Mtb MIC99 7H9
[9] = Table 2, phosphonic acid salts, read-out: Pf DXR IC50
[10] = Table 4, growth inhibition, read-out: Pf IC50
[11] = minimal media (GAST-Fe), read-out: Mtb MIC99 Gast/Fe

| Compound | IC50 (P. falciparum [2]; [7]) [µg/mL] | MIC99 (Mtb; [8]) [µg/mL] | MIC99 (Mtb; [11]) [µg/mL] | further results |
| --- | --- | --- | --- | --- |
| O=C(Cc1ccccc1)N(O)C/C=C/P(=O)([O-])O.[Na+] [Compound 32b, Sodium hydrogen [(1E)-3-(N-hydroxy-2-phenylacetamido)prop-1-en-1-yl]phosphonate] | 0.137 | > 100 |  | IC50 (P. falciparum DXR [1]; [6]): 170 nM; Mtb Dxr (% Residue) (Mtb DXR): (33.6) % |
| CC(=O)N(C/C=C/P(=O)([O-])O)OCc1ccc(C(C)C)cc1.[Na+] [Compound 16e, Sodium hydrogen [(1E)-3-(N-{[4-(propan-2-yl)phenyl]methoxy}acetamido)prop-1-en-1-yl]phosphonate] |  |  |  | IC50 (P. falciparum DXR [1]; [9]): 2110 nM; IC50 (P. falciparum [2]; [10]): 1100 nM; resistance of had1 parasites compared with wild-type [3]: more resistant |
| O=C(CCCc1ccccc1)N(O)C/C=C/P(=O)([O-])O.[Na+] [Compound 32d, Sodium hydrogen [(1E)-3-(N-hydroxy-4-phenylbutanamido)prop-1-en-1-yl]phosphonate] | 1.6 | > 100 | > 100 | IC50 (P. falciparum DXR [1]; [6]): 898 nM; Mtb Dxr (% Residue) (Mtb DXR): (29.2) % |
| CC(C)(C)C(=O)OCOP(=O)(/C=C/CN(O)C(=O)CCCc1ccccc1)OCOC(=O)C(C)(C)C [Compound 33d, [({[(2,2-dimethylpropanoyl)oxy]methoxy}[(1E)-3-(N-hydroxy-4-phenylbutanamido)prop-1-en-1-yl]phosphoryl)oxy]methyl 2,2-dimethylpropanoate] | 2.4 | > 100 | 37 (≈ 70.1 µM) |  |
| CC(=O)N(C/C=C/P(=O)(O)O)OC(C)c1ccccc1 (stereo not drawn) [Compound 16d, Sodium hydrogen [(1E)-3-[N-(1-phenylethoxy)acetamido]prop-1-en-1-yl]phosphonate] |  |  |  | IC50 (P. falciparum DXR [1]; [9]): 2540 nM; IC50 (P. falciparum [2]; [10]): 1200 nM |
| CC(=O)N(C/C=C/P(=O)([O-])O)OCc1ccc2ccccc2c1.[Na+] [Compound 16f, Sodium hydrogen [(1E)-3-{N-[(naphthalen-2-yl)methoxy]acetamido}prop-1-en-1-yl]phosphonate] |  |  |  | Pf DXR (% Residue) (P. falciparum DXR [1]): (25) %; IC50 (P. falciparum [2]; [10]): 26000 nM |
| COC(=O)N(O)C/C=C/P(=O)(O)O [Compound 12c, Diammonium [(1E)-3-[hydroxy(methoxycarbonyl)amino]prop-1-en-1-yl]phosphonate] |  |  |  | IC50 (P. falciparum DXR [1]; [9]): 14400 nM; IC50 (P. falciparum [2]; read-out: Pf IC50): 28600 nM |
| CCOP(=O)(/C=C/CN(O)C(=O)c1ccccc1)OCC [Compound 31a, Diethyl [(1E)-3-(N-hydroxy-1-phenylformamido)prop-1-en-1-yl]phosphonate] | > 100 | > 100 | > 100 |  |
| C[C@@H]1CC[C@H]2[C@@H](C)C(=O)O[C@@H]3O[C@@]4(C)CC[C@@H]1[C@]32OO4 [artemisinin] |  |  |  | IC50 (P. falciparum [4]): 10.4 nM |
| O=C(N(O)C/C=C/P(=O)([O-])O)C(F)(F)F.[Na+] [Compound 12b, Sodium hydrogen [(1E)-3-(2,2,2-trifluoro-N-hydroxyacetamido)prop-1-en-1-yl]phosphonate] |  |  |  | Pf DXR (% Residue) (P. falciparum DXR [1]): (36.96) %; IC50 (P. falciparum [2]; [10]): 113000 nM |
| CCOP(=O)(/C=C/CN(O)C(=O)CCc1ccccc1)OCC [Compound 31c, Diethyl [(1E)-3-(N-hydroxy-3-phenylpropanamido)prop-1-en-1-yl]phosphonate] | > 100 | > 100 | > 100 |  |
| CC(=O)N(C/C=C/P(=O)(O)O)OCc1ccc(-c2ccccc2)cc1 [Compound 16g, Sodium hydrogen [(1E)-3-{N-[(4-phenylphenyl)methoxy]acetamido}prop-1-en-1-yl]phosphonate] |  |  |  | IC50 (P. falciparum DXR [1]; [9]): 4530 nM; IC50 (P. falciparum [2]; [10]): 2300 nM |
| CC(C)(C)C(=O)OCOP(=O)(/C=C/CN(O)C(=O)Cc1ccccc1)OCOC(=O)C(C)(C)C [Compound 33b, [({[(2,2-dimethylpropanoyl)oxy]methoxy}[(1E)-3-(N-hydroxy-2-phenylacetamido)prop-1-en-1-yl]phosphoryl)oxy]methyl 2,2-dimethylpropanoate] | 0.152 | 100 (≈ 200 µM) | 74 (≈ 148 µM) |  |
| O=C(c1ccccc1)N(O)C/C=C/P(=O)([O-])O.[Na+] [Compound 32a, Sodium hydrogen [(1E)-3-(N-hydroxy-1-phenylformamido)prop-1-en-1-yl]phosphonate] | 0.103 | > 50 | 25 | IC50 (P. falciparum DXR [1]; [6]): 110 nM and 106 nM; Mtb Dxr (% Residue) (Mtb DXR): (36.87) %; IC50 (HepG2 cells): > 50000 nM; resistance of had1 parasites compared with wild-type [3]: more resistant |
| CCOP(=O)(/C=C/CN(O)C(=O)CCCc1ccccc1)OCC [Compound 31d, Diethyl [(1E)-3-(N-hydroxy-4-phenylbutanamido)prop-1-en-1-yl]phosphonate] | 11.1 | > 100 | > 100 |  |
| CC(=O)N(O)CCCP(=O)(O)O [FR900098] |  |  |  | IC50 (P. falciparum DXR [5]): 24 nM |
| CCOP(=O)(/C=C/CN(O)C(=O)Cc1ccccc1)OCC [Compound 31b, Diethyl [(1E)-3-(N-hydroxy-2-phenylacetamido)prop-1-en-1-yl]phosphonate] | 110 | > 100 |  |  |
| CC(C)(C)C(=O)OCOP(=O)(/C=C/CN(O)C(=O)c1ccccc1)OCOC(=O)C(C)(C)C [Compound 33a, [({[(2,2-dimethylpropanoyl)oxy]methoxy}[(1E)-3-(N-hydroxy-1-phenylformamido)prop-1-en-1-yl]phosphoryl)oxy]methyl 2,2-dimethylpropanoate] | 0.097 | 50 (≈ 103 µM) |  | IC50 (HepG2 cells): > 50000 nM; resistance of had1 parasites compared with wild-type [3]: more resistant |
| O=C(CCc1ccccc1)N(O)C/C=C/P(=O)([O-])O.[Na+] [Compound 32c, Sodium hydrogen [(1E)-3-(N-hydroxy-3-phenylpropanamido)prop-1-en-1-yl]phosphonate] | 3.3 | > 100 | > 100 | IC50 (P. falciparum DXR [1]; [6]): 1340 nM; Mtb Dxr (% Residue) (Mtb DXR): (62.3) % |

— patent US11098072B2, “Alkenyl and beta-substituted phosphonates as antimicrobial agents” (The George Washington University, priority 2017, dated 2021)
